Data taken from paper PMC6331912, “7-Methoxytacrine-p-Anisidine Hybrids as Novel Dual Binding Site Acetylcholinesterase Inhibitors for Alzheimer’s Disease Treatment” (Molecules, 2015).

Experiments:
Format in all cases: biochemical
[1] = biological target: human plasma butyrylcholinesterase (hBChE) (Homo sapiens, UniProt P06276); assay: biochemical; conditions: for IC50: mean of at least three experiments, substrate BTCh, pH 7.4, 37 °C, read-out: hBChE IC50 ± SEM; for fold weaker inhibitor of hBChE related to tacrine: ratio of IC50 to tacrine
human plasma butyrylcholinesterase (hBChE), sequence (P06276 29-602): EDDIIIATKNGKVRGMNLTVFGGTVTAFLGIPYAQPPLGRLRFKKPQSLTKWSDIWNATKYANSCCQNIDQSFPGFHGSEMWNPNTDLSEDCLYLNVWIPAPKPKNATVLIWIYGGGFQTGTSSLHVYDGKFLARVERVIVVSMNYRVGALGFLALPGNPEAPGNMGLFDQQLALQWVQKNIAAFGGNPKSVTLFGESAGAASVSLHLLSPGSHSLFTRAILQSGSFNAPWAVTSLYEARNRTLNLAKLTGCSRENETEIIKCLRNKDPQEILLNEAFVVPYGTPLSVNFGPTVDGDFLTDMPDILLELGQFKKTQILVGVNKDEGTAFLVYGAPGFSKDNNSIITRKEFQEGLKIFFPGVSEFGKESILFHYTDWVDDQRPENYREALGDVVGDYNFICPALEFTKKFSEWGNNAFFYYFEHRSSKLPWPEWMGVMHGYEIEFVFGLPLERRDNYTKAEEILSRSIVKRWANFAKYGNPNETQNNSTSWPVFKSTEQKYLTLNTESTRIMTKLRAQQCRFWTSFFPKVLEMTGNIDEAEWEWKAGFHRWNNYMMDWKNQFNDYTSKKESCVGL

[2] = biological target: T1, human recombinant acetylcholinesterase (hAChE) (Homo sapiens, UniProt P22303); assay: biochemical; conditions: for IC50: mean of at least three experiments, substrate ATCh, pH 7.4, 37 °C, read-out: hAChE IC50 ± SEM; for Selectivity for hAChE: ratio hBChE IC50/hAChE IC50; for fold weaker inhibitor of hAChE compared to tacrine: ratio of IC50 to tacrine
T1 construct: purchased Sigma-Aldrich (Prague, Czech Republic)
T1 sequence (P22303 32-614): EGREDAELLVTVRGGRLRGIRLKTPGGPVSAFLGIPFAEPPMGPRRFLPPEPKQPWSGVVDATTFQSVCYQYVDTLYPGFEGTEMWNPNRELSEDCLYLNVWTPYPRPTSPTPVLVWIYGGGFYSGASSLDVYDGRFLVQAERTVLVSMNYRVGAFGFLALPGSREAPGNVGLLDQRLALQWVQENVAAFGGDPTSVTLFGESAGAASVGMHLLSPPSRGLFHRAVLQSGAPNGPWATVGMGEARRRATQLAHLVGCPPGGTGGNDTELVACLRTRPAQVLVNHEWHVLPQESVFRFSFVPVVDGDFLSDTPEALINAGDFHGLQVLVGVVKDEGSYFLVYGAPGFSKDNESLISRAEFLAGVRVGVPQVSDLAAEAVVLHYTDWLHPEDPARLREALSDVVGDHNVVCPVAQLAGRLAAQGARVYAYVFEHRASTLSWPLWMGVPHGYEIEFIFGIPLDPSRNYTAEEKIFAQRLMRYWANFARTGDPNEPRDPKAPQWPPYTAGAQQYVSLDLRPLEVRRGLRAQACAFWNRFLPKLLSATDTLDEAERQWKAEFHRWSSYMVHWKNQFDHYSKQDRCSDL

[3] = biological target: T2, AChE (Homo sapiens, UniProt P22303); assay: Kinetic study of AChE inhibition (Ellman's method, nonlinear regression, Lineweaver-Burk); conditions: for Ki: estimated by nonlinear regression analysis, substrate ATCh; for type of inhibition: p < 0.05, apparent Vmax decreased, Km unchanged with increasing inhibitor concentration
T2 construct: purchased Sigma-Aldrich (Prague, Czech Republic)
T2 sequence (P22303 32-614): as above
Protocol: […]. We used a kinetic assay in order to obtain information about the mode of inhibition and binding site of the target compounds. The mechanism of inhibition was analyzed by recording substrate concentration—enzymatic reaction rate curves in the presence of different concentrations of compounds 15 and 19. Analysis confirmed a non-competitive type of inhibition (p < 0.05) for both compounds. With increasing concentration of inhibitor, apparent Vmax decreased and Km remained unchanged. […] […]. Such a pattern of inhibition is also characteristic for donepezil and it may indicate prevailing interactions of the enzyme with PAS [36]. PAS of AChE is associated with the ability to induce Aβ aggregation, thus, compounds interacting with this region may inhibit such a process and could have additional benefit for the treatment of AD [37].
Figure 3 Steady-state inhibition of AChE hydrolysis of acetylthiocholine (ATCh) by compounds 15 and 19. […]. Lines were derived from a weighted least-squares analysis of data.
The kinetic study of AChE inhibition was performed by using Ellman’s method (described above). The type of inhibition was elucidated from the nonlinear regression analysis. Results for each type model of inhibition (competitive, noncompetitive, uncompetitive and mixed) were compared with sum-of-squares F-test. […]. Linear regression was used for calculation of Lineweaver-Burk plots. All calculations were performed using the GraphPad Prism software.

Compound	IC50 [1] [µM]	IC50 [2] [µM]	Selectivity for hAChE [2]	fold weaker inhibitor of hAChE compared to tacrine [2] [fold]	Ki [3] [µM]	type of inhibition [3]	fold weaker inhibitor of hBChE related to tacrine [1] [fold]
COc1ccc(NC(=S)NCCCCNc2c3c(nc4ccc(OC)cc24)CCCC3)cc1.O=C(O)C(O)C(O)C(=O)O [compound 11, 3-{4-[(7-Methoxy-1,2,3,4-tetrahydroacridin-9-yl)amino]butyl}-1-(4-methoxyphenyl)thiourea-2,3‑dihydroxy-succinate]	6.04 ± 0.1	32.8 ± 9.9	0.18	–	–	–	–
COc1ccc(NC(=S)NCCCCCCCCNc2c3c(nc4ccc(OC)cc24)CCCC3)cc1.O=C(O)C(O)C(O)C(=O)O [compound 15, 3-{8-[(7-Methoxy-1,2,3,4-tetrahydroacridin-9-yl)amino]octyl}-1-(4-methoxyphenyl)thiourea-2,3‑dihydroxy-succinate]	10.2 ± 4.7	1.36 ± 0.4	7.53	4.2	1.33 ± 0.125	non-competitive	–
COc1ccc(NC(=S)NCCCCCNc2c3c(nc4ccc(OC)cc24)CCCC3)cc1.O=C(O)C(O)C(O)C(=O)O [compound 12, 3-{5-[(7-Methoxy-1,2,3,4-tetrahydroacridin-9-yl)amino]pentyl}-1-(4-methoxyphenyl)thiourea-2,3‑dihydroxy-succinate]	13.5 ± 0.7	4.9 ± 0.3	2.71	–	–	–	–
COc1ccc(NC(=O)NCCCCNc2c3c(nc4ccc(OC)cc24)CCCC3)cc1.O=C(O)C(O)C(O)C(=O)O [compound 18, 3-{4-[(7-Methoxy-1,2,3,4-tetrahydroacridin-9-yl)amino]butyl}-1-(4-methoxyphenyl)urea-2,3‑dihydroxy-succinate]	9.34 ± 0.1	13.8 ± 3.9	0.68	–	–	–	–
COc1ccc(NC(=S)NCCNc2c3c(nc4ccc(OC)cc24)CCCC3)cc1.O=C(O)C(O)C(O)C(=O)O [compound 9, 3-{2-[(7-Methoxy-1,2,3,4-tetrahydroacridin-9-yl)amino]ethyl}-1-(4-methoxyphenyl)thiourea-2,3‑dihydroxy-succinate]	1.03 ± 0.1	43.6 ± 2.1	0.02	–	–	–	12.9
COc1ccc(NC(=O)NCCNc2c3c(nc4ccc(OC)cc24)CCCC3)cc1.O=C(O)C(O)C(O)C(=O)O [compound 16, 3-{2-[(7-Methoxy-1,2,3,4-tetrahydroacridin-9-yl)amino]ethyl}-1-(4-methoxyphenyl)urea-2,3‑dihydroxy-succinate]	11.9 ± 2.3	44.9 ± 1.4	0.27	–	–	–	–
COc1ccc(NC(=O)NCCCNc2c3c(nc4ccc(OC)cc24)CCCC3)cc1.O=C(O)C(O)C(O)C(=O)O [compound 17, 3-{3-[(7-Methoxy-1,2,3,4-tetrahydroacridin-9-yl)amino]propyl}-1-(4-methoxyphenyl)urea-2,3‑dihydroxy-succinate]	15.9 ± 4.1	26.9 ± 5.9	0.59	–	–	–	–
COc1ccc(NC(=O)NCCCCCCCCNc2c3c(nc4ccc(OC)cc24)CCCC3)cc1.O=C(O)C(O)C(O)C(=O)O [compound 22, 3-{8-[(7-Methoxy-1,2,3,4-tetrahydroacridin-9-yl)amino]octyl}-1-(4-methoxyphenyl)urea-2,3‑dihydroxy-succinate]	1.34 ± 0.2	2.14 ± 0.6	0.63	–	–	–	16.8
COc1ccc(NC(=O)NCCCCCCCNc2c3c(nc4ccc(OC)cc24)CCCC3)cc1.O=C(O)C(O)C(O)C(=O)O [compound 21, 3-{7-[(7-Methoxy-1,2,3,4-tetrahydroacridin-9-yl)amino]heptyl}-1-(4-methoxyphenyl)urea-2,3‑dihydroxy-succinate]	1.69 ± 0.2	1.72 ± 0.3	0.98	–	–	–	–
COc1ccc(NC(=S)NCCCCCCNc2c3c(nc4ccc(OC)cc24)CCCC3)cc1.O=C(O)C(O)C(O)C(=O)O [compound 13, 3-{6-[(7-Methoxy-1,2,3,4-tetrahydroacridin-9-yl)amino]hexyl}-1-(4-methoxyphenyl)thiourea-2,3‑dihydroxy-succinate]	9.35 ± 0.1	10.3 ± 1.3	0.90	–	–	–	–
COc1ccc(NC(=O)NCCCCCNc2c3c(nc4ccc(OC)cc24)CCCC3)cc1.O=C(O)C(O)C(O)C(=O)O [compound 19, 3-{5-[(7-Methoxy-1,2,3,4-tetrahydroacridin-9-yl)amino]pentyl}-1-(4-methoxyphenyl)urea-2,3‑dihydroxy-succinate]	10.9 ± 1.6	1.35 ± 0.3	8.07	4.2	0.453 ± 0.0251	non-competitive	–
COc1ccc(NC(=S)NCCCCCCCNc2c3c(nc4ccc(OC)cc24)CCCC3)cc1.O=C(O)C(O)C(O)C(=O)O [compound 14, 3-{7-[(7-Methoxy-1,2,3,4-tetrahydroacridin-9-yl)amino]heptyl}-1-(4-methoxyphenyl)thiourea-2,3‑dihydroxy-succinate]	3.13 ± 0.3	3.96 ± 0.1	0.79	–	–	–	–
COc1ccc(NC(=O)NCCCCCCNc2c3c(nc4ccc(OC)cc24)CCCC3)cc1.O=C(O)C(O)C(O)C(=O)O [compound 20, 3-{6-[(7-Methoxy-1,2,3,4-tetrahydroacridin-9-yl)amino]hexyl}-1-(4-methoxyphenyl)urea-2,3‑dihydroxy-succinate]	5.75 ± 0.4	4.56 ± 0.9	1.26	–	–	–	–
COc1ccc(NC(=S)NCCCNc2c3c(nc4ccc(OC)cc24)CCCC3)cc1.O=C(O)C(O)C(O)C(=O)O [compound 10, 3-{3-[(7-Methoxy-1,2,3,4-tetrahydroacridin-9-yl)amino]propyl}-1-(4-methoxyphenyl)thiourea-2,3‑dihydroxy-succinate]	8.73 ± 0.1	6.36 ± 0.5	1.37	–	–	–	–
